Laboratory results taken from US20190262300A1, “COMPOSITION FOR PREVENTING OR TREATING PSORIASIS CONTAINING MONOACETYL DIACYLGLYCEROL COMPOUND” (ENZYCHEM LIFESCIENCES CORPORATION, priority 2016, published 2019).

How the values were obtained:
Assay type in all cases: in vivo, Balb/c mice
[1] = system: psoriasis-induced mouse models (IMQ); assay: Keratinization and thickness of back skin of IMQ-induced psoriasis mice; details: vs psoriasis-induced group
From the text: (§1) In order to confirm the preventive and therapeutic effects of psoriasis by 1-palmitoyl-2-linoleoyl-3-acetylglycerol (EC-18 or PLAG), imiquimod (hereinafter, referred to as IMQ), which is commonly used to induce skin inflammation i.e., psoriasis, such as infiltration of immune cells, epidermal hyperplasia, etc., was used as a ligand for TLR7 and TLR8 to carry out an experiment using psoriasis-induced mouse models. As an experiment model, 6 to 8-week-old female Balb/c-based mice (KOATECH, Pyeongtaek, Korea) were maintained under a specific pathogen free (SPF) environment and used. PLAG (ENZYCHEM LIFESCIENCES, Korea) was prepared before in vivo or in vitro treatment. Also, statistical analysis was performed using a paired t-test.
Mice were randomly divided into three groups: control group, psoriasis-induced group, and PLAG group. As the IMQ, Aldara cream (3M Health Care Limited, UK) containing 5% of IMQ was used. […]
In order to investigate whether PLAG prevents the progression of psoriasis, psoriasis was induced using IMQ cream (Aldara cream) as in Example 1. […] Subsequently, for the measurement of thickness of back skin, the back skin was removed, and the thickness of the removed back skin was measured using a caliper. The thickness of the measured back skin is shown in the graph of FIG. 3(B).

IL-17 = assay: Immunohistochemical staining of IL-17 expression in IMQ-induced psoriatic skin; details: PLAG 250 mg/kg/day oral day 0 to day 4 with Aldara cream 40 mg/day; back skin
From the text: as §1
(§2) Mice were randomly divided into three groups: control group, psoriasis-induced group, and PLAG group. As the IMQ, Aldara cream (3M Health Care Limited, UK) containing 5% of IMQ was used.
(§3) For 5 days from day 0 to day 4, the control group was treated with vaseline (Unilever, UK) and PBS, the psoriasis-induced group was treated with Aldara cream and PBS, and the PLAG group was treated with Aldara cream and PLAG. Vaseline and Aldara cream were applied to the back of mice at a dose of 40 mg/day, and PBS and PLAG were orally administered at a dose of 250 mg/kg/day. On Day 5, which was the 6th day, the mice were sacrificed. […]

[2] = system: neutrophil recruitment in the back skin; assay: Immunohistochemical staining of neutrophil recruitment in back skin; details: PLAG 250 mg/kg/day oral day 0 to day 4 with Aldara cream 40 mg/day
From the text: as §1, §2, §3

[3] = system: psoriasis-induced mouse models (IMQ); assay: H&E histology of back skin (IMQ-induced chronic inflammatory skin disorder); details: PLAG 250 mg/kg/day oral day 0 to day 4 with Aldara cream 40 mg/day
From the text: as §1, §2
For 5 days from day 0 to day 4, the control group was treated with vaseline (Unilever, UK) and PBS, the psoriasis-induced group was treated with Aldara cream and PBS, and the PLAG group was treated with Aldara cream and PLAG. Vaseline and Aldara cream were applied to the back of mice at a dose of 40 mg/day, and PBS and PLAG were orally administered at a dose of 250 mg/kg/day. On Day 5, which was the 6th day, the mice were sacrificed.
The thickness of the back skin of the mice of Example 1 was stained with the following H&E (Hematoxylin and Eosin) staining method, and histologically observed and evaluated under an optical microscope (Olympus, Tokyo, Japan) 5. The H&E staining method is as follows:
The back skin tissue of the mice was fixed in a 10% buffered formalin solution for 24 hours, embedded in paraffin and cut into 4 μm-thick sections. After removing paraffin and rehydrating the sections, the sections were stained with hematoxylin and eosin.

[4] = system: psoriasis-induced mouse models (IMQ); assay: Size and weight of spleen in IMQ-induced psoriasis mice; details: PLAG 250 mg/kg/day oral day 0 to day 4 with Aldara cream 40 mg/day, vs control group
From the text: as §1, §2
For 5 days from day 0 to day 4, the control group was treated with vaseline (Unilever, UK) and PBS, the psoriasis-induced group was treated with Aldara cream and PBS, and the PLAG group was treated with Aldara cream and PLAG. […]
The size of the spleen removed from the mice of Example 1 was measured using a ruler, and the weight was measured using a scale.

CCCCC/C=C\C/C=C\CCCCCCCC(=O)OC(COC(C)=O)COC(=O)CCCCCCCCCCCCCCC (racemic) [PLAG, 1-palmitoyl-2-linoleoyl-3-acetyl-rac-glycerol]
thickness of the back skin (caliper) ([1]; PLAG 250 mg/kg/day oral day 0 to day 4 with Aldara cream 40 mg/day, day 5): significantly decreased
keratosis on the back of the mice ([1]; PLAG 250 mg/kg/day oral day 0 to day 4 with Aldara cream (5% IMQ) 40 mg/day, photographed day 5): remarkably alleviated
IL-17 expression in the skin blood vessels (immunohistochemistry) (IL-17): significantly inhibited
level of neutrophil recruitment in back skin (NIMP-R14 immunohistochemistry) [2]: significantly lower than that in the psoriasis-induced group
hair follicles (H&E) [3]: present as in the control group
neutrophils between the stratum corneum (H&E) [3]: not found
thicknesses of the stratum corneum and the epidermis (H&E) ([3]; vs psoriasis-induced group): remarkably reduced
size of spleen ([4]; ruler): increased compared to the control group
weight of spleen ([4]; scale): maintained the same as the weight of spleen of the control group
